Test results taken from patent US20100004333A1, “COMPOSITIONS AND METHODS FOR TREATING CARDIOVASCULAR DISORDERS” (priority 2004, published 2010).

What was measured:
apoE−/− mice = assay: Atherosclerotic lesion size (morphometry) in apoE−/− mice on high fat diet with or without probucol; format: in vivo; settings: 24 weeks
Text: Male C57BL/6J mice, homozygous for the disrupted apoE gene (apoE−/−) and originally purchased from Jackson Laboratories (Bar Harbor, Me.), were used at 8-10 weeks of age and then fed for 24 weeks ad libitum a high fat diet containing 21.2 (w/w) fat and 0.15% (w/w) cholesterol (specifications of the Harlan Teklad diet TD88137), without (controls, 103 mice) or with probucol (1% w/w, 87 mice), as described in Arteriosclerosis Thrombosis and Vascular Biology 2000, 20:e26-e33. The local animal ethics committee approved the study.
Procedures were carried out as described in Arteriosclerosis Thrombosis and Vascular Biology 2000, 20:e26-e33. For biochemistry, hearts and aortas past the femoral bifurcation were excised carefully (n=86 and 70 for control and probucol animals, respectively), cleaned, placed immediately in ice-cold buffer containing protease inhibitors and antibiotics, and then stored at −80° C. For histology, separate mice (n=17 each, for controls and probucol) were perfusion fixed, the hearts and aortas dissected and processed for blinded morphometry at the sinus, arch and descending thoracic and abdominal aorta, precisely as described in Arteriosclerosis Thrombosis and Vascular Biology 2000, 20:e26-e33. Mean areas from thoracic and abdominal aortas were similar and therefore combined and presented as a single value. For histology, sections at the sinus were taken ˜200 μm from the first appearance of the leaflets. Sections at the thoracic and abdominal aorta were taken at the branch point of the 3rd pair of intra-costal arteries and the celiac artery, respectively.
Data on lesion size are presented as mean±SEM and the effects of probucol analysed by the Mann-Whitney U-test. Biochemical parameters were compared using a one-way ANOVA or Mann-Whitney U-test. Data on total cell numbers, macrophages and collagen content are expressed as mean±SD, and significant differences between means evaluated using the Student's t-test. Statistical significance was accepted at p<0.05.

[1] = mouse, in vivo
Description: The quantity of probucol, BP, and DPQ in aortic homogenates was determined by gradient reverse-phase high-pressure liquid chromatography (HPLC) as described in FASEB Journal 1999, 13:667-675.

## CC(C)(Sc1cc(C(C)(C)C)c(O)c(C(C)(C)C)c1)Sc1cc(C(C)(C)C)c(O)c(C(C)(C)C)c1 [probucol]
apoE−/− mice; Arch, 1% probucol, mean ± SEM, 17 mice
  Lesion size: 121 ± 27^a μm^2 × 10^−3
apoE−/− mice; Sinus, 1% (w/w) probucol in high fat diet, mean ± SEM, 17 mice
  Lesion size: 904 ± 56 μm^2 × 10^−3
apoE−/− mice; Thoracic/Abdominal, 1% probucol, mean ± SEM, 17 mice
  Lesion size: 7 ± 2^a μm^2 × 10^−3
apoE−/− mice; arch, 1% probucol
  Lesion size: 0.12±0.03 mm^2
apoE−/− mice; arch, 1% probucol, not significant
  Inhibition of disease (lesion size) versus control: 36%
apoE−/− mice; descending aorta, 1% probucol
  Lesion size: 7,300±2,400 μm^2
apoE−/− mice; descending aorta, 1% probucol, p<0.0001
  Inhibition of disease (lesion size) versus control: 94%
apoE−/− mice; sinus, 1% probucol
  Lesion size: 0.90±0.56 mm^2
apoE−/− mice; sinus, 1% probucol, p<0.01
  Increase in lesion size versus control: 33%
[1]
  Metabolites (BP and DPQ) relative to parent drug: nearly one third of the drug
